# Experimental data published in publication PMC12030627, “Radioiodinated Bicyclic RGD Peptide Derivatives for Enhanced Tumor Accumulation” (Pharmaceuticals, 2025).
# Read-outs that look alike come from different tables or passages of the source. Starred links: 1 amine or outer side, 2 acyl side, 3 side chain; linkers in the order of their positions; H or OH if unused. Positions of bridges follow the written chain, without caps; N, C: chain ends. Non-standard residues stand in square brackets, D forms with d. Residues, ends and D or L forms follow the SMILES beside them. *: point of attachment. Butanoyl(4-(4-I-phenyl)) = O=C(CCCc1ccc(I)cc1)*; TBMB = c1c(C[*:1])cc(C[*:3])cc1C[*:2]; Benzoyl(3-I) = O=C(c1cccc(I)c1)*; 4Abz = Nc1ccc(C(=O)O)cc1
# Assay: Biodistribution in U-87 MG tumor-bearing mice
# Assay type: in vivo, BALB/c nu-nu mice
# Settings: male, BALB/c nu-nu, mouse, iv, 37 kBq, total radioactivity, U-87 MG-bearing mice, mean ± SD, n = 3; for tissue uptake at 1 h / tissue uptake dose at 1 h: 1 h after i.v. administration; for tissue uptake at 2 h / tissue uptake dose at 2 h: 2 h after i.v. administration; for tissue uptake at 6 h / tissue uptake dose at 6 h: 6 h after i.v. administration; for tissue uptake at 5 min / tissue uptake dose at 5 min: 5 min after i.v. administration; for tissue uptake at 0.5 h / tissue uptake dose at 0.5 h: 30 min after i.v. administration
# Protocol: Animal experiments were performed in compliance with institutional animal care regulations, with the study protocol approved by the Experimental Animal Committee of Osaka Medical and Pharmaceutical University (Approval Numbers: 21–76, 22–76, and 23–76). Four-week-old male BALB/c nu-nu mice (Japan SLC, Shizuoka, Japan) were housed under a 12 h light/12 h dark cycle with free access to food and water. Tumor-bearing mice were established by suspending U-87 MG cells (2 × 10^6 cells/mouse) in PBS(–) and subcutaneously injecting 100 μL of the suspension into the right hind leg. For co-implantation models, A549 cells (2 × 10^6 cells/mouse) were suspended in PBS(–) and inoculated (100 μL) into the left hind leg of the same mice already inoculated with U-87 MG cells. Mice with tumor size approximately 10 mm in diameter, 4–5 weeks after inoculation, were used for biodistribution studies. Animals in which either tumor was not viable were excluded from the experiment.
# U-87 MG-bearing mice (n = 42, 8–9 weeks old; 22–27 g) were randomly assigned into groups and administered [^125I]bcRGDpal or [^125I]bcRGDiba via intravenous injection (37 kBq in 100 μL of PBS containing 0.1% Tween 80 (PBS-T80)). At 5 min, 30 min, 1 h, 2 h, 6 h, 12 h, or 24 h post-injection, the mice were euthanized (n = 3 per time point). The heart, kidneys, liver, brain, pancreas, spleen, lung, small intestine, large intestine, muscle, skin, stomach, bone, and tumors were excised. Each organ’s weight and radioactivity were measured by a NaI well-type scintillation counter, and the % ID/g was calculated. To investigate the correlation between integrin expression and radioactivity accumulation, biodistribution at 2 h after administration of [^125I]bcRGDpal or [^125I]bcRGDiba was assessed in A549 and U-87 MG co-implantation mice (n = 5) using the same procedure. Additionally, co-implantation mice were injected with [^125I]bcRGDdimer (37 kBq/100 μL PBS-T80) and euthanized at 30 min, 2 h, and 4 h post-injection (n = 4 per time point), and % ID/g values were calculated as described above. The minimum sample size needed for the biodistribution study in U-87 MG-bearing mice was calculated using G Power software version 3.1.9.7. The calculation was based on a two-tailed test, with an effect size of 3.9, a significance level (α) of 0.05, and a statistical power (1 − β) of 0.8. […] The minimum required sample size for the biodistribution study in A549 and U-87 MG co-implantation mice was also calculated to be four animals per group (effect size = 2.5, α = 0.05, 1 − β = 0.8). To guarantee objective results, the experiment was carried out in a blinded manner. Specifically, drug administration and radioactivity measurements were conducted by different investigators to eliminate potential bias.
# [1] = liver, read-out: Radioactivity in liver
# [2] = lung, read-out: Radioactivity in lung
# [3] = muscle, read-out: Radioactivity in muscle
# [4] = pancreas, read-out: Radioactivity in pancreas
# [5] = small intestine, read-out: Radioactivity in small intestine
# [6] = spleen, read-out: Radioactivity in spleen
# [7] = stomach, read-out: Radioactivity in stomach
# [8] = thyroid, read-out: Radioactivity in thyroid
structure (smiles),measurement,setting,value
N=C(N)NCCC[C@@H]1NC(=O)[C@H]2CSCc3cc(cc(c3)CSC[C@H](C(N)=O)NC(=O)[C@H](CC(=O)O)NC(=O)CNC1=O)CSC[C@H](NC(=O)CNC(=O)[C@H](CO)NC(=O)c1ccc(NC(=O)CNC(=O)[C@H](CO)NC(=O)[C@@H]3CCCN3C(=O)[C@@H]3CCCN3C(=O)[C@@H]3CCCN3C(=O)[C@H](CCCCNC(=O)c3cccc(I)c3)NC(=O)CCCc3ccc(I)cc3)cc1)C(=O)N[C@@H](Cc1c[nH]cn1)C(=O)N1CCC[C@H]1C(=O)N[C@@H](CCC(N)=O)C(=O)N2 [[^125I]bcRGDiba] ({Butanoyl(4-(4-I-phenyl))}-K(Benzoyl(3-I))PPPSG[4Abz]SGCHPQ[dC]RGD[dC]-NH2; linker 10-14-18 via TBMB),tissue uptake at 1 h,[1],5.7 ± 0.7 %ID/g
same,tissue uptake at 2 h,[1],5.1 ± 0.4 %ID/g
same,tissue uptake at 6 h,[1],3.4 ± 0.4 %ID/g
same,tissue uptake at 12 h,"liver, 12 h after i.v. administration, read-out: Radioactivity in liver",1.4 ± 0.2 %ID/g
same,tissue uptake at 24 h,"liver, 24 h after i.v. administration, read-out: Radioactivity in liver",0.6 %ID/g
same,tissue uptake at 5 min,[2],10.7 ± 1.9 %ID/g
same,tissue uptake at 0.5 h,[2],9.4 ± 0.3 %ID/g
same,tissue uptake at 1 h,[2],8.2 ± 0.6 %ID/g
same,tissue uptake at 2 h,[2],7.5 ± 0.4 %ID/g
same,tissue uptake at 6 h,[2],5.3 ± 0.5 %ID/g
same,tissue uptake at 12 h,"lung, 12 h after i.v. administration, read-out: Radioactivity in lung",2.6 ± 0.3 %ID/g
same,tissue uptake at 24 h,"lung, 24 h after i.v. administration, read-out: Radioactivity in lung",1.2 ± 0.1 %ID/g
same,tissue uptake at 5 min,[3],1.4 ± 0.4 %ID/g
same,tissue uptake at 0.5 h,[3],1.5 ± 0.2 %ID/g
same,tissue uptake at 1 h,[3],1.5 ± 0.1 %ID/g
same,tissue uptake at 2 h,[3],1.5 ± 0.2 %ID/g
same,tissue uptake at 6 h,[3],1.2 ± 0.3 %ID/g
same,tissue uptake at 12 h,"muscle, 12 h after i.v. administration, read-out: Radioactivity in muscle",0.5 ± 0.1 %ID/g
same,tissue uptake at 24 h,"muscle, 24 h after i.v. administration, read-out: Radioactivity in muscle",0.3 %ID/g
same,tissue uptake at 5 min,[4],2.3 ± 0.4 %ID/g
same,tissue uptake at 0.5 h,[4],2 ± 0.2 %ID/g
same,tissue uptake at 1 h,[4],1.5 ± 0.2 %ID/g
same,tissue uptake at 2 h,[4],1.4 ± 0.2 %ID/g
same,tissue uptake at 6 h,[4],1 ± 0.2 %ID/g
same,tissue uptake at 12 h,"pancreas, 12 h after i.v. administration, read-out: Radioactivity in pancreas",0.5 ± 0.1 %ID/g
same,tissue uptake at 24 h,"pancreas, 24 h after i.v. administration, read-out: Radioactivity in pancreas",0.2 %ID/g
same,tissue uptake at 5 min,[5],2.3 ± 0.4 %ID/g
same,tissue uptake at 0.5 h,[5],3 ± 0.1 %ID/g
same,tissue uptake at 1 h,[5],4.8 ± 0.6 %ID/g
same,tissue uptake at 2 h,[5],4.9 ± 0.3 %ID/g
same,tissue uptake at 6 h,[5],5.6 ± 1.1 %ID/g
same,tissue uptake at 12 h,"small intestine, 12 h after i.v. administration, read-out: Radioactivity in small intestine",2.2 ± 0.5 %ID/g
same,tissue uptake at 24 h,"small intestine, 24 h after i.v. administration, read-out: Radioactivity in small intestine",0.9 ± 0.1 %ID/g
same,tissue uptake at 5 min,[6],2.9 ± 0.5 %ID/g
same,tissue uptake at 0.5 h,[6],3 ± 0.2 %ID/g
same,tissue uptake at 1 h,[6],2.5 ± 0.2 %ID/g
same,tissue uptake at 2 h,[6],2.3 ± 0.3 %ID/g
same,tissue uptake at 6 h,[6],1.7 ± 0.5 %ID/g
same,tissue uptake at 12 h,"spleen, 12 h after i.v. administration, read-out: Radioactivity in spleen",0.9 ± 0.1 %ID/g
same,tissue uptake at 24 h,"spleen, 24 h after i.v. administration, read-out: Radioactivity in spleen",0.4 %ID/g
same,tissue uptake dose at 5 min,[7],0.4 ± 0.1 %ID
same,tissue uptake dose at 0.5 h,[7],0.8 ± 0.2 %ID
same,tissue uptake dose at 1 h,[7],0.7 ± 0.1 %ID
same,tissue uptake dose at 2 h,[7],0.7 ± 0.3 %ID
same,tissue uptake dose at 6 h,[7],0.8 ± 0.2 %ID
same,tissue uptake dose at 12 h,"stomach, 12 h after i.v. administration",0.2 ± 0.1 %ID
same,tissue uptake dose at 24 h,"stomach, 24 h after i.v. administration",0.2 %ID
same,tissue uptake dose at 5 min,[8],0.1 %ID
same,tissue uptake dose at 0.5 h,[8],0.1 ± 0.1 %ID
same,tissue uptake dose at 1 h,[8],0.1 ± 0.1 %ID
same,tissue uptake dose at 2 h,[8],0.1 ± 0.1 %ID
same,tissue uptake dose at 6 h,[8],0.1 %ID
